Non-standard residues stand in square brackets, D forms with d. Residues, ends and D or L forms follow the SMILES beside them. *: point of attachment. 3Amb = NCc1cccc(C(=O)O)c1; 4Amb = NCc1ccc(C(=O)O)cc1; Cbz = O=C(OCc1ccccc1)*; NHOH = ON*
How the values were obtained:
[1] = biological target: T1, Protein deacetylase HDAC6 (Homo sapiens, UniProt Q9UBN7); experiment: Inhibition of human N-terminal GST-tagged HDAC6 expressed in baculovirus infected insect cells using RHKKAc as substrate
T1 sequence (Q9UBN7 whole entry): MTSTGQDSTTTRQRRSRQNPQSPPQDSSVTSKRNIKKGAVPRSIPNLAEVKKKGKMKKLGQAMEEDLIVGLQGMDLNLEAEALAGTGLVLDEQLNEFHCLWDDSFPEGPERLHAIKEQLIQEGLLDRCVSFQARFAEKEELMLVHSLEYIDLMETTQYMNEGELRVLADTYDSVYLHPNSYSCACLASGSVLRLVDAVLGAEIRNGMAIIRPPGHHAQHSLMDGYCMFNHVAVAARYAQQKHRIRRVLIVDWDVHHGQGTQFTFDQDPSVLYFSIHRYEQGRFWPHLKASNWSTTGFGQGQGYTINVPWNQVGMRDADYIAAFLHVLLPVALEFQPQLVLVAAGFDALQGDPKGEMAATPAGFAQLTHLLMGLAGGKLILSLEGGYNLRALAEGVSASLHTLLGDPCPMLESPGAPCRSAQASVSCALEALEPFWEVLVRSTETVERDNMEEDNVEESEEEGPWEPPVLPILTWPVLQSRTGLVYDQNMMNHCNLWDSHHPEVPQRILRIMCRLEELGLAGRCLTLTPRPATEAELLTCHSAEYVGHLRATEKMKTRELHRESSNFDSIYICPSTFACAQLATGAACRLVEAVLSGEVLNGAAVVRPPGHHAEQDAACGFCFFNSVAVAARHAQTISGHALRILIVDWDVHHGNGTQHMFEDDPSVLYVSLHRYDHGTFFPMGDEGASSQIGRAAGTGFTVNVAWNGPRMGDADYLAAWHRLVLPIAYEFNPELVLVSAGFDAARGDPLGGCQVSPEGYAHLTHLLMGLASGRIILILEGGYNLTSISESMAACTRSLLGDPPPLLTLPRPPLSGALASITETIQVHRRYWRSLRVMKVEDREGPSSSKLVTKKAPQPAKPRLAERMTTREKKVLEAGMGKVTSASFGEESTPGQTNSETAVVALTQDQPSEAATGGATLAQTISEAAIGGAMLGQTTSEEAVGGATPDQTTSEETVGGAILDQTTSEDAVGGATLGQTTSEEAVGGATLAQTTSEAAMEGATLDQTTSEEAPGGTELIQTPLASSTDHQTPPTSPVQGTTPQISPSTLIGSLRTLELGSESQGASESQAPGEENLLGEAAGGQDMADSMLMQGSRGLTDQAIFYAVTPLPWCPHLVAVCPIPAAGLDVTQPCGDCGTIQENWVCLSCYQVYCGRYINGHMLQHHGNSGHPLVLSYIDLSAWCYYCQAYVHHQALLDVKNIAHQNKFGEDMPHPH

[2] = biological target: T1, Protein deacetylase HDAC6; experiment: Inhibition of HDAC6 CD2 domain (unknown origin)
[3] = biological target: T1, Protein deacetylase HDAC6; experiment: Inhibition of recombinant C-terminal FLAG-tagged HDAC6 (unknown origin) using Ac-NH-GGK(Ac)-AMC as substrate measured after 180 mins by fluorescence assay

SMILES | IC50 [1] [nM] | IC50 [2] [nM] | other results
O=C(NO)c1ccc(CNC(=O)c2cccnc2C(F)(F)F)cc1 | 17 |  | 
CC1(C)[C@@H]2CC[C@@H](CNCc3ccc(C(=O)NO)cc3)[C@H]1C2 |  | 149 | 
O=C(CNC(=O)CNC(=O)OCc1ccccc1)NCc1ccc(C(=O)NO)cc1 (Cbz-Gly-Gly-[4Amb]-{NHOH}) |  | 335 | 
CC(C)C[C@H](NC(=O)OCc1ccccc1)C(=O)N[C@@H](C)C(=O)NCc1cccc(C(=O)NO)c1 (Cbz-Leu-Ala-[3Amb]-{NHOH}) |  | 8420 | 
CC(C)C[C@H](NC(=O)OCc1ccccc1)C(=O)N[C@@H](C)C(=O)NCc1ccc(C(=O)NO)cc1 (Cbz-Leu-Ala-[4Amb]-{NHOH}) | 314 |  | 
CN(C)Cc1ccc(S(=O)(=O)n2ccc(/C=C/C(=O)NO)c2)cc1 [RESMINOSTAT] |  |  | IC50 [3]: 72 nM

From ChEMBL document CHEMBL4321863, “Exploring Structural Determinants of Inhibitor Affinity and Selectivity in Complexes with Histone Deacetylase 6” (J Med Chem, 2020)
